Laboratory results published in US6407099B1, “Arylpiperidinopropanol and arylpiperazinopropanol derivatives and pharmaceuticals containing the same” (Suntory Limited, priority 1997, dated 2002).

How the values were obtained:
DBA/2N type mice = test: Audiogenic seizure suppressing effect; type: in vivo; conditions: compound 10 mg/kg, i.p., audio stimulus after 20 minutes, seizure score; for inhibition in vivo at 10 mg/kg: Mus musculus, ip, 20 min, read-out: Antiseizure effect (suppression rate %); for Antiseizure effect (suppression rate %): 10 mg/kg
Description: Audiogenic Seizure Suppressing Effect
The audiogenic seizure suppressing effect of the compounds was evaluated by the method of Sarro et al. [G. B. De Sarro et al., Br. J. Pharmacol., 93, 247 (1988)]. That is, the compound dissolved in 10% 2-hydroxypropyl-β-cyclodextrin was administered intraperitoneally to DBA/2N type mice (male, 3 weeks old). After 20 minutes, a supersonic washer was used to apply audio stimulus of at least 90 dB for 1 minute. The wild running (WR), clonic seizures (clonus), tonic seizures (tonus), and the respiratory arrest (RA) were observed. The seizure suppressing effect was evaluated from the rate of suppression of the average value of the seizure score found as 0=no response, 1=WR, 2=clonus, 3=tonus, and 4=RA.

Sodium channel = test: Inhibitory effect of veratrizine-induced sodium channel activity (synaptozome membrane potential, Rhodamine 6G); type: biochemical, Wistar rats; conditions: compound 0.1 μM; rat brain synaptozomes, veratrizine-induced depolarization
Description: Inhibitory Effect of Veratrizine-induced Sodium Channel Activity

T-type Ca^2+ channel = test: T-type calcium channel inhibitory effect (whole-cell patch clamp, hippocampal CA1 pyramidal cells); type: cell-based, Wistar rats; conditions: rat hippocampal CA1 pyramidal cells; peak current after 1 minute of application
Description: T-Type Calcium Channel Inhibitory Effect
The hippocampal CA1 pyramidal cells were isolated from Wistar rats (female, 1 week old) in according to the method reported by Takahashi et al. [K. Takahashi et al.; J. Pharmacol. Exp. Ther., 256, 169 (1991)] and the T-type calcium current was measured under conditions of a fixed membrane potential using the whole-cell configuration of the patch clamp technique. The effects of the compounds were evaluated from the rate of suppression of the peak current after 1 minute of application using the concentration clamp method.

Acute toxicity test = conditions: male, mouse, in vivo, iv, ddY mice, death rate up to 24 hours after administration
Description: A pharmaceutical preparation was administered intravenously to ddY mice (male, 6 weeks old). The 50% lethal dosage LD50 of the acute toxicity was calculated by an ordinary method from the death rate up to 24 hours after administration.

Dopamine D2 receptor = biological target: T1, Dopamine D2 receptor (Rattus norvegicus, UniProt P61169); test: Dopamine D2 receptor blocking action ([^3H] raclopride, striatum membrane fraction); type: binding, Wistar male rats; conditions: 1.0 nM [^3H] raclopride, 25° C., 1 hour
T1 construct: membrane fraction prepared from the striatum of Wistar male rats; from tissue; host or cells: rat striatum membrane fraction
T1 sequence (P61169 whole entry): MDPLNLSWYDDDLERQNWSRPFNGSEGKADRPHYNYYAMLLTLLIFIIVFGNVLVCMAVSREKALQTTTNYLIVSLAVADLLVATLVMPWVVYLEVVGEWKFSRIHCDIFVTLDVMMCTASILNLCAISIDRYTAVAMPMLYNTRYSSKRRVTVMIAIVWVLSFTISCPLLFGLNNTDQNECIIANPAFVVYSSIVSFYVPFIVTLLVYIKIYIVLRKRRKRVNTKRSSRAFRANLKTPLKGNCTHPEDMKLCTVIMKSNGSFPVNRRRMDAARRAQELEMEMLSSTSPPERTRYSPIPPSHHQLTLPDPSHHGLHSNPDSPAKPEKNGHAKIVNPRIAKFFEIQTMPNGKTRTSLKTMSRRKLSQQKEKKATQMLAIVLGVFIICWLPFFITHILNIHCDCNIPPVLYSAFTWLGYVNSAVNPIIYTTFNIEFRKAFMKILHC
Description: Dopamine D2 Receptor Blocking Action
57 μl of the membrane fraction prepared from the striatum of Wistar male rats (6 weeks old) was incubated together with the compound and 1.0 nM [^3H] raclopride in a buffer at 25° C. for 1 hour. A GF/C glass filter (0.1% polyethylene imine treatment) was used for B/F separation. A beta plate was used for measurement of the radioactivity to evaluate the effect of the compound.

lipid peroxidation = test: Lipid peroxidation suppressing effect (brain membrane preparation, malonaldehyde and 4-hydroxyalkenals); type: biochemical, Wistar rats; conditions: rat brain membrane preparation, 37° C., 30 minutes
Description: Lipid Peroxidation Suppressing Effect
The whole brains of Wistar rats (10 weeks old, male) were excised and homogenized in the 10 times volumes of 50 mM phosphate-buffered solution (pH=7.4) (hereinafter referred to as PBS). The centrifuged supernatent was further diluted fourfold and the result was used as the brain membrane preparation. The membrane preparation was incubated in the presence of vehicle (0.5% DMSO) or compound at 37° C. for 30 minutes and an automatic oxidation reaction promoted. The reaction was stopped by 35% perchloric acid, then the total of the main decomposition products of the peroxidized lipids present in the centrifuged supernatent, that is, malonaldehyde and 4-hydroxyalkenals, was measured using a BIOXYTECH®/LPO-586™ peroxidized lipid colorimetric assay kit (OXIS International, Inc.) and used as an indicator of the lipid peroxidation.

Structure (SMILES) | inhibition in vivo at 10 mg/kg (DBA/2N type mice) [%] | further results
Nc1ccc(OC[C@@H](O)CN2CCC(c3ccc(Oc4ccccc4)cc3)CC2)cc1 [Compound 25, (2S)-1-(4-aminophenoxy)-3-[4-(4-phenoxyphenyl)piperidin-1-yl]-2-propanol] | 58 | Anti-veratrizine effect (inhibiting rate %) (Sodium channel): 21%
Cc1cc(OC[C@@H](O)CN2CCC(c3ccc(Oc4ccccc4)cc3)CC2)c(C)c(C)c1N [Compound 26, (2S)-1-[(4-amino-2,3,5-trimethyl)phenoxy]-3-[4-(4-phenoxyphenyl)piperidin-1-yl]-2-propanol] | 74 | IC50 (T-type Ca^2+ channel): 3.4 µM; LD50 at 24 h (Acute toxicity test): 41 mg/kg; IC50 (Dopamine D2 receptor): 5.6 µM
Cc1cc(OC[C@@H](O)CN2CCC(c3ccc(Cc4ccc(F)cc4)cc3)CC2)c(C)c(C)c1N [Compound 27, (2S)-1-[(4-amino-2,3,5-trimethyl)phenoxy]-3-[4-(4-(4-fluorophenyl)methylphenyl)piperidin-1-yl]-2-propanol] | 55 | IC50 (lipid peroxidation): 0.46 µM; Anti-veratrizine effect (inhibiting rate %) (Sodium channel): 32.1%; IC50 (Dopamine D2 receptor): 6.3 µM
Cc1cc(OC[C@@H](O)CN2CCN(c3ccc(Cc4ccc(F)cc4)cc3)CC2)c(C)c(C)c1N [Compound 28, (2S)-1-[(4-amino-2,3,5-trimethyl)phenoxy]-3-[4-(4-(4-fluorophenyl)methylphenyl)piperazin-1-yl]-2-propanol] | 76 | IC50 (T-type Ca^2+ channel): 3 µM; LD50 at 24 h (Acute toxicity test): 47.3 mg/kg; IC50 (Dopamine D2 receptor): 12 µM
Cc1cc(OC[C@@H](O)CN2CCC(O)(c3ccc(-c4ccccc4)c(F)c3)CC2)c(C)c(C)c1N [Compound 30] | 44 | –
Cc1cc(OC[C@@H](O)CN2CCC(c3ccc(OC4CCCC4)cc3)CC2)c(C)c(C)c1N [Compound 31, (2S)-1-[(4-amino-2,3,5-trimethyl)phenoxy]-3-[4-(4-cyclopentyloxyphenyl)piperidin-1-yl]-2-propanol] | 74 | –
Cc1cc(OC[C@@H](O)CN2CCC(c3ccc(Oc4ccccc4)cc3)CC2)c(C)cc1N [Compound 32] | 70 | –
Cc1cc(OC[C@@H](O)CN2CCC(c3ccc(Cc4ccc(F)cc4)cc3)CC2)c(C)cc1N [Compound 33, (2S)-1-[(4-amino-2,5-dimethyl)phenoxy]-3-[4-(4-(4-fluorophenyl)methylphenyl)piperidin-1-yl]-2-propanol] | 78 | –
Cc1cc(OC[C@@H](O)CN2CCN(c3ccc(Cc4ccc(F)cc4)cc3)CC2)c(C)cc1N [Compound 34] | 74 | –
Cc1c(N)ccc(OC[C@@H](O)CN2CCC(c3ccc(Oc4ccccc4)cc3)CC2)c1C [Compound 35, (2S)-1-[(4-amino-2,3-dimethyl)phenoxy]-3-[4-(4-phenoxyphenyl)piperidin-1-yl]-2-propanol] | 74 | –
Cc1c(N)ccc(OC[C@@H](O)CN2CCC(c3ccc(Cc4ccc(F)cc4)cc3)CC2)c1C [Compound 36, (2S)-1-[(4-amino-2,3-dimethyl)phenoxy]-3-[4-(4-(4-fluorophenyl)methylphenyl)piperidin-1-yl]-2-propanol] | 68 | –
Cc1cc(N)c(C)c(C)c1OC[C@@H](O)CN1CCC(c2ccc(Oc3ccccc3)cc2)CC1 [Compound 38, (2S)-1-[(4-amino-2,3,6-trimethyl)phenoxy]-3-[4-(4-phenoxyphenyl)piperidin-1-yl]-2-propanol] | 92 | –
Cc1cc(N)c(C)c(C)c1OC[C@@H](O)CN1CCN(c2ccc(Cc3ccc(F)cc3)cc2)CC1 [Compound 40, (2S)-1-[(4-amino-2,3,6-trimethyl)phenoxy]-3-[4-(4-(4-fluorophenyl)methylphenyl)piperazin-1-yl]-2-propanol] | 80 | LD50 at 24 h (Acute toxicity test): 49.1 mg/kg; IC50 (Dopamine D2 receptor): 12 µM
COc1ccc(N)cc1OC[C@@H](O)CN1CCC(c2ccc(Oc3ccc(F)cc3)cc2)CC1 [Compound 42, (2S)-1-[(5-amino-2-methoxy)phenoxy]-3-[4-(4-(4-fluorophenoxy)phenyl)piperidin-1-yl]-2-propanol] | 50 | Anti-veratrizine effect (inhibiting rate %) (Sodium channel): 10.3%
COc1ccc(N)cc1OC[C@@H](O)CN1CCC(c2ccc(Cc3ccc(F)cc3)cc2)CC1 [Compound 43, (2S)-1-[(5-amino-2-methoxy)phenoxy]-3-[4-(4-(4-fluorophenyl)methylphenyl)piperidin-1-yl]-2-propanol] | 30 | Anti-veratrizine effect (inhibiting rate %) (Sodium channel): 21%
COc1ccc(N)cc1OC[C@@H](O)CN1CCN(c2ccc(Cc3ccc(F)cc3)cc2)CC1 [Compound 44, (2S)-1-[(5-amino-2-methoxy)phenoxy]-3-[4-(4-(4-fluorophenyl)methylphenyl)piperazin-1-yl]-2-propanol] | 80 | –
COc1ccc(N)cc1OC[C@@H](O)CN1CCC(c2ccc(OC3CCCC3)cc2)CC1 [Compound 45] | 44 | –
Cc1cc(C)c(OC[C@@H](O)CN2CCC(c3ccc(Oc4ccccc4)cc3)CC2)c(N)c1 [Compound 46, (2S)-1-[(2-amino-4,6-dimethyl)phenoxy]-3-[4-(4-phenoxyphenyl)piperidin-1-yl]-2-propanol] | 88 | –
Cc1cc(C)c(OC[C@@H](O)CN2CCC(c3ccc(Cc4ccc(F)cc4)cc3)CC2)c(N)c1 [Compound 47, (2S)-1-[(2-amino-4,6-dimethyl)phenoxy]-3-[4-(4-(4-fluorophenyl)methylphenyl)piperidin-1-yl]-2-propanol] | 56 | –
Cc1cc(C)c(OC[C@@H](O)CN2CCN(c3ccc(Cc4ccc(F)cc4)cc3)CC2)c(N)c1 [Compound 48, (2S)-1-[(2-amino-4,6-dimethyl)phenoxy]-3-[4-(4-(4-fluorophenyl)methylphenyl)piperazin-1-yl]-2-propanol] | 70 | –
COc1cc(Cl)c(N)cc1OC[C@@H](O)CN1CCC(c2ccc(Oc3ccccc3)cc2)CC1 [Compound 49, (2S)-1-[(5-amino-4-chloro-2-methoxy)phenoxy]-3-[4-(4-phenoxyphenyl)piperidin-1-yl]-2-propanol] | 42 | Anti-veratrizine effect (inhibiting rate %) (Sodium channel): 15.1%
Nc1cc(Cl)c(OC[C@@H](O)CN2CCC(c3ccc(Oc4ccccc4)cc3)CC2)c(Cl)c1 [Compound 51, (2S)-1-[(4-amino-2,6-dichloro)phenoxy]-3-[4-(4-phenoxyphenyl)piperidin-1-yl]-2-propanol] | 74 | –
COc1ccc(NCC(O)CN2CCC(c3ccc(Oc4ccccc4)cc3)CC2)c(C)c1 (stereo not drawn) [Compound 53, 1-[4-(4-phenoxyphenyl)piperidin-1-yl]-3-[(4-methoxy-2-methyl)phenylamino]-2-propanol] | – | IC50 (T-type Ca^2+ channel): 2.2 µM; Antiseizure effect (suppression rate %) (DBA/2N type mice): 46%; IC50 (Dopamine D2 receptor): 11 µM
COc1ccc(NCC(O)CN2CCC(c3ccc(Cc4ccc(F)cc4)cc3)CC2)c(C)c1 (stereo not drawn) [Compound 54] | 58 | –
COc1ccc(NCC(O)CN2CCN(c3ccc(Cc4ccc(F)cc4)cc3)CC2)c(C)c1 (stereo not drawn) [Compound 55] | 70 | –
COc1ccc(NC[C@@H](O)CN2CCC(c3ccc(Oc4ccccc4)cc3)CC2)c(C)c1 [Compound 56, (2R)-1-[4-(4-phenoxyphenyl)piperidin-1-yl]-3-[(4-methoxy-2-methyl)phenylamino]-2-propanol] | – | Antiseizure effect (suppression rate %) (DBA/2N type mice): 64%
COc1ccc(NC[C@H](O)CN2CCC(c3ccc(Oc4ccccc4)cc3)CC2)c(C)c1 [Compound 57] | – | Antiseizure effect (suppression rate %) (DBA/2N type mice): 68%
Cc1c(C)c(NCC(O)CN2CCC(c3ccc(Oc4ccccc4)cc3)CC2)c(C)c(C)c1N (stereo not drawn) [Compound 58, 3-[(4-amino-2,3,5,6-tetramethyl)phenylamino]-1-[4-(4-phenoxyphenyl)piperidin-1-yl]-2-propanol] | 68 | –
